The values below come from the OPERA property sets (Mansouri et al. 2018).

One may read the logP as the decadic logarithm of the partition coefficient of the neutral form, usually between octanol and water. A higher logP goes with a more lipophilic compound. Compound `CN(C)S(=O)(=O)c1ccccc1` registered a logP of 1.35.

In the case of `FC(F)(F)c1nc2c(Br)c(Br)c(Br)cc2[nH]1`, the log partition coefficient (logP) amounted to 4.08.

Consider `Clc1ccc(-c2ccc(Cl)c(Cl)c2Cl)c(Cl)c1`, for which the lipophilicity (logP) was 6.61.

`Clc1ccc(-c2cc(Cl)ccc2Cl)cc1` had a logP of 5.69.

The compound `NC(=O)c1cccs1` registered a logP of 0.52.

Consider `CC(=O)C(=Cc1ccc(F)cc1)C(C)=O`, for which the logP came to 1.65.

On to `CSc1nnc(C(C)C)c(=O)n1N`, for which the log partition coefficient (logP) came out at 1.01.

On to `C[N+](C)(C)Cc1cccc(Cl)c1.[Br-]`, for which the logP was -1.81.

The compound `CCCCN(SN(C)C(=O)ON=C(C)SC)C(C)=O` showed a log partition coefficient (logP) of 2.4.

`CSC(C)=NOC(=O)N(C)SN(C)C(=O)c1c(Cl)cccc1Cl`: the logP was determined as 2.6.

Take `O=c1c2ccccc2ncn1O`: the logP is -0.45.

In the case of `CN1C(=O)C(=Cc2ccc([N+](=O)[O-])o2)SC1=S`, the logP was found to be 1.06.

As for `CN(C)/N=N/c1ccccc1C(=O)NC#N`, the logP was found to be 0.8.

Compound `CC(C)NC(=O)NN` came in with a lipophilicity (logP) of -1.3.

`NC(=O)c1cccc(OC(=O)CNC(=O)c2ccccc2)c1` yielded a logP of 1.2.

Take `O=C(CNC(=O)c1ccccc1)Oc1ccc(F)cc1`: the logP was determined as 2.46.

Consider `CSc1nc2nc(SC)[nH]c(Cl)c-2n1`, for which the logP was determined as 0.63.

`CC(=O)N=C1SC(=Cc2ccc([N+](=O)[O-])o2)C(=O)N1C` had a lipophilicity (logP) of 1.21.

The compound `O=C(NN=Cc1ccccc1)c1ccccc1` returned a logP of 2.56.

In turn, `COc1cc(Cc2cnc(N)nc2N)ccc1Cl` returned a logP of 1.87.

In turn, `Cc1ncc([N+](=O)[O-])n1CC(O)CCl` (centres undefined) gave a log partition coefficient (logP) of 0.6.

Take `N#Cc1cccc(OC(=O)CNC(=O)c2ccccc2)c1`: the logP was 2.11.

`Cc1ccccc1NC(=O)C1CNCCN1` (centres undefined) showed a lipophilicity (logP) of 0.26.

Compound `O=C1CCC(=O)N1c1ccc(C(F)(F)F)cc1` displayed a lipophilicity (logP) of 1.45.

As to `CCCCC1OC(=O)c2cc(Cl)ccc21` (centres undefined), the log partition coefficient (logP) is 3.53.

For `COC12C(COC(N)=O)C3=C(C(=O)C(C)=C(Nc4ncc(C)s4)C3=O)N1CC1NC12` (centres undefined), the log partition coefficient (logP) amounted to 1.16.

`NC(=O)/C=C/c1ccc2c(c1)OCO2` came in with a lipophilicity (logP) of 1.4.

For `OCC1OC(SCCc2ccccc2)C(O)C(O)C1O` (centres undefined), the logP is -0.1.

The compound `CN(C)c1cnnc(N(C)C)c1` had a logP of 0.84.

The compound `CC(C)N1CCOC(c2cccc(Cl)c2)C1` (centres undefined) registered a lipophilicity (logP) of 3.27.

Take `O=S(=O)(Nc1cccc(O)c1)C(F)(F)F`: the logP was 2.51.

`Nc1nc(N)nc(-c2cc(Br)ccc2Br)n1` displayed a logP of 2.09.

Take `CCOC(=O)C(C#N)=NNc1cccc(Cl)c1`: the logP is 3.94.

`COc1ccc(Cc2cnc(N)nc2N)cc1Nc1ccccc1` gave a logP of 2.88.

As for `CC(=O)C(C#N)=NNc1ccc(Cl)c(Cl)c1`, the logP is 4.56.

Turning to `CNC(=O)O/N=C/C(C)(C)S(C)(=O)=O`, the logP was -0.57.

Regarding `COc1cc(C)nn1-c1ccncn1`, the lipophilicity (logP) turned out to be 0.5.

For the compound `CCOC(=O)CN(C(=O)CCl)c1ccccc1Cl`, the logP was found to be 2.3.

Compound `CN(C)C(=O)CCC(=O)OCC(=O)C1(O)CCC2C3CCC4=CC(=O)CCC4(C)C3C(O)CC21C` (centres undefined) yielded a logP of 2.03.

For `CS(=O)(=O)N(c1ccccc1)S(C)(=O)=O`, the log partition coefficient (logP) stood at 0.62.

`CCCCCCCCCCCCCCCCCC[n+]1ccccc1.[I-]` had a logP of 3.68.

Compound `N#CC(C#N)=C(c1ccccc1)c1ccccc1` gave a logP of 3.55.

`O=C(CN1CCCCC1)Nc1cccc(Cl)c1` gave a log partition coefficient (logP) of 3.45.

`CCCOn1c(=O)c(Br)c(C)n(C)c1=O` registered a log partition coefficient (logP) of 0.72.

Take `CCCCCCCCCCCC[n+]1ccc(C)cc1C.[I-]`: the logP stood at 1.41.

The compound `CC1(C)N=C(N)N=C(N)N1c1cccc(C#N)c1` came in with a logP of -0.24.

Take `CC=CCOC(=O)C1C(C=C(C)C)C1(C)C` (centres undefined): the log partition coefficient (logP) was 5.09.

`Cc1ccc2c([N+](=O)[O-])cc[n+]([O-])c2c1` registered a lipophilicity (logP) of 1.42.

As to `CC(=O)c1ccc(NS(=O)(=O)C(F)(F)F)cc1`, the logP was 2.83.
